pEC50, pIC50: −log10 of the molar value.
Assays:
[1] = test system: RSV-A Memphis-37b; test: RSV human challenge study: viral load in nasal wash by quantitative culture; assay type: in vivo
Procedure: (§1) Subjects were screened outside the RSV season for eligibility, including measurement of RSV-A Memphis-37b-specific neutralizing antibody titer, ≤90 days before virus challenge. Eligible subjects were admitted to the quarantine unit on day −2 or day −1 and were inoculated intranasally on day 0 with the challenge virus, RSV-A Memphis-37b (4 log10 PFU/ml, given as one 0.4-ml installation per naris), as previously described ([26]). Nasal wash sampling every 12 h for confirmation of RSV infection by qualitative integrated cycler PCR ([12], [19]) began on the morning of day 2. Treatment began 12 h (±1 h) after collection of a nasal wash sample confirming RSV infection or on the evening of day 5 if RSV infection remained unconfirmed by the morning of day 5.
(§2) The study comprised two consecutive cohorts. […] Subjects were discharged on day 12 if nasopharyngeal swab samples tested negative by RSV rapid antigen assay (QuickVue RSV test; Quidel, San Diego, CA, USA). If such tests were positive or if a subject remained symptomatic, quarantine was extended to allow further observation. All subjects were evaluated on day 28 (±3 days).
(§3) Twice-daily collection of nasal wash samples allowed measurement of viral load via RT-qPCR and quantitative culture. RT-qPCR results were reported as PFUe/ml when the standard curve included in each assay contained a known infectious amount (PFU) of RSV, as described previously ([30]). Subjects reported the occurrence and severity of symptoms three times daily using a 10-item subject symptom diary card as previously reported ([12]) (see Supplemental Methods). Throughout the quarantine period, used tissues were collected and weighed daily, and total nasal mucus weight was recorded. PK assessments were based on venous blood samples. Safety assessments included measurement of vital signs, standard 12-lead ECG recordings, spirometry, a complete physical examination, and a respiratory-directed physical examination. AEs were monitored daily, coded according to the Medical Dictionary for Regulatory Activities Version 20.0, and graded according to the National Cancer Institute Common Terminology Criteria for Adverse Events Version 4.0 (see Supplemental Methods for further details).
(§4) The primary efficacy endpoint was AUC for RSV viral load, as measured by RT-qPCR, in nasal wash samples taken twice daily from just before the first dose until discharge (day 12). Viral load data were provided as log10 PFUe/ml; AUC (log10 PFUe/ml · h) was calculated using the trapezoid rule. Secondary efficacy endpoints related to viral load were AUC of RSV viral load, as assessed by quantitative culture, and the following measures, which were each assessed using both RT-qPCR and quantitative culture: peak viral load, time to peak viral load, and time to <1 log10 (for RT-qPCR) or undetectable (for quantitative culture) viral load (considered to occur at the first confirmed undetectable assessment after which no further virus was detected). Secondary efficacy endpoints related to clinical symptoms included AUC total symptom score; peak total symptom score; time to peak total symptom score; and the total weight of nasal mucus produced. Other secondary outcomes were safety, PK, and sequence detection of viral variants (see Supplemental Methods).
The primary efficacy analysis population (the ITT-I analysis set) comprised all randomized subjects who received challenge virus and at least one dose of study drug and met the criterion for laboratory-confirmed RSV infection (presence of detectable RSV). Sensitivity analyses were based on a subset of the ITT-I population who had first detectable RSV infection prior to study drug administration (the ITT-A analysis set) and a fixed time period of 6.5 days (comprising data for all subjects for 6.5 days of evaluation after the first dose, regardless of the staggered commencement of dosing). […]

[2] = test system: RSV-A clinical isolates; design: method as in ref 16 = [16]; 16. Cockerill GS , Bedernjak A , Brookes D , Dowey R , Harland R , Johnson SM , Mathews N , Paradowski M , Peeples M , Scott C , Steadman M , Taylor G , Thom M , Thomas E , Ward SE , Watterson D , You; conditions: n = 20 isolates; cited from earlier work
[3] = test system: RSV-A (panel of 10 clinical strains); test: In vitro susceptibility of RSV by plaque assay, RSV-A; assay type: cell-based; conditions: human respiratory syncytial virus
Procedure: (§5) Previous RSV challenge studies achieved antiviral efficacy with peripheral blood trough exposure levels over 3× the protein binding-adjusted in vitro EC90 ([12]). Based on the phase 1 PK data, this level of exposure was predicted to be achieved on or after the first dose in the majority of subjects with a 200-mg dose and to be met or exceeded on or after the first dose in all subjects with a 350-mg dose. The in vitro EC90 was determined using a panel of clinical isolates of RSV (Table S7).
(§6) EC50 range (nM) EC90 range (nM)
(§7) EC50 and EC 90 were determined by plaque assay.
(§8) EC50, 50% effective concentration; EC90, 90% effective concentration; RSV, respiratory

[4] = test system: RSV-A Memphis-37b; test: RSV human challenge study: disease severity (total symptom score, nasal mucus weight); assay type: in vivo
Procedure: as §1, §2, §3, §4
All statistical analyses were performed using two-sided testing. Student’s t tests were performed for normally distributed data with a constant variance; otherwise, the Satterthwaite t test or nonparametric tests were used. For the mucus weight analysis, the least-squares mean was calculated from a mixed model with repeated measures, adjusted for baseline mucus weight and treatment group as covariates and subject as a random effect.

[5] = test system: RSV-B (panel of 10 clinical strains); test: In vitro susceptibility of RSV by plaque assay, RSV-B; assay type: cell-based; conditions: human respiratory syncytial virus
Procedure: as §5, §6, §7, §8

[6] = 200 mg, ITT-I, fixed time period of 6.5 days
[7] = 350 mg, ITT-A, fixed time period of 6.5 days
[8] = 350 mg, ITT-I, fixed time period of 6.5 days

NCc1ccc2c(c1)nc(CN1C(=O)C3(CC3)c3ccc(F)cc31)n2CCCC(F)(F)F [RV521]
AUC of viral load (quantitative culture), mean (SE) ([1]; 200 mg, ITT-A): 53.89 (15.47) hours x log10 PFU/mL
AUC of viral load (quantitative culture), reduction in mean vs placebo ([1]; 200 mg, ITT-A): 71.47%
Peak viral load (quantitative culture), mean (SE) ([1]; 200 mg, ITT-A): 1.82 (0.41) log10 PFU/mL
Time to peak viral load (quantitative culture), mean (SE) ([1]; 200 mg, ITT-A): 3.53 (0.84) days
Time to undetectable viral load (quantitative culture), median (Q1, Q3) ([1]; 200 mg, ITT-A): 3 (2, 3.5) days
AUC of viral load (quantitative culture), mean (SE) ([1]; 200 mg, ITT-I): 50.98 (14.89) log10 PFU/ml · h
AUC of viral load (quantitative culture), reduction in mean vs that of placebo ([1]; 200 mg, ITT-I): 68.60%
Peak viral load (quantitative culture), mean (SE) ([1]; 200 mg, ITT-I): 1.72 (0.40) log10 PFU/ml
Time to peak viral load (quantitative culture), mean (SE) ([1]; 200 mg, ITT-I): 3.69 (0.81) days
Time to undetectable viral load (quantitative culture), median (Q1, Q3) ([1]; 200 mg, ITT-I): 3.0 (2.0, 3.5) (n = 11) days
Mean viral load at time of peak viral load in placebo arm (day 2; quantitative culture), mean (SE) ([1]; 200 mg, ITT-I): 0.88 (0.30) log10 PFU/ml
AUC of viral load (quantitative culture), mean (SE) [1, 6]: 50.98 (14.89) log10 PFU/mL x hours
AUC of viral load (quantitative culture), reduction in mean vs placebo [1, 6]: 68.60%
AUC of viral load (quantitative culture), mean (SE) ([1]; 350 mg, ITT-A): 43.76 (14.73) hours x log10 PFU/mL
AUC of viral load (quantitative culture), reduction in mean vs placebo ([1]; 350 mg, ITT-A): 76.83%
Peak viral load (quantitative culture), mean (SE) ([1]; 350 mg, ITT-A): 1.81 (0.44) log10 PFU/mL
Time to peak viral load (quantitative culture), mean (SE) ([1]; 350 mg, ITT-A): 3.47 (0.87) days
Time to undetectable viral load (quantitative culture), median (Q1, Q3) ([1]; 350 mg, ITT-A): 2.5 (2, 2.5) days
AUC of viral load (quantitative culture), mean (SE) [1, 7]: 43.76 (14.73) log10 PFU/mL x hours
AUC of viral load (quantitative culture), reduction in mean vs placebo [1, 7]: 76.83%
AUC of viral load (quantitative culture), mean (SE) ([1]; 350 mg, ITT-I): 38.29 (13.36) log10 PFU/ml · h
AUC of viral load (quantitative culture), reduction in mean vs that of placebo ([1]; 350 mg, ITT-I): 76.42%
Peak viral load (quantitative culture), mean (SE) ([1]; 350 mg, ITT-I): 1.58 (0.41) log10 PFU/ml
Time to peak viral load (quantitative culture), mean (SE) ([1]; 350 mg, ITT-I): 3.85 (0.80) days
Time to undetectable viral load (quantitative culture), median (Q1, Q3) ([1]; 350 mg, ITT-I): 2.5 (2.0, 2.5) (n = 9) days
Mean viral load at time of peak viral load in placebo arm (day 2; quantitative culture), mean (SE) ([1]; 350 mg, ITT-I): 0.71 (0.32) log10 PFU/ml
AUC of viral load (quantitative culture), mean (SE) [1, 8]: 38.29 (13.36) log10 PFU/mL x hours
AUC of viral load (quantitative culture), reduction in mean vs placebo [1, 8]: 76.42%
pIC50 [2]: 8.85
pEC50 ([3]; read-out: EC50 range): 9.00 to 9.52
EC90 ([3]; read-out: EC90 range): 2.5 to 5.6 nM
AUC of total symptom score, mean (SE) ([4]; 200 mg, ITT-A): 117.9 (35.26) score x hours
AUC of total symptom score, reduction in mean vs placebo ([4]; 200 mg, ITT-A): 73.06%
Daily nasal mucus weight, LS mean ([4]; 200 mg, ITT-A): 0.32 g
Peak total symptom score, mean (SE) ([4]; 200 mg, ITT-A): 2.5 (0.49)
Time to peak total symptom score, mean (SE) ([4]; 200 mg, ITT-A): 1.82 (0.67) days
Time to resolution from peak total symptom score, mean (SE) ([4]; 200 mg, ITT-A): 2.73 (0.39) days
AUC of total symptom score, mean (SE) ([4]; 200 mg, ITT-A, fixed time period of 6.5 days): 117.41 (35.26) score x hours
AUC total symptom score, mean (SE) ([4]; 200 mg, ITT-I): 111.35 (33.88) score × hours
Daily nasal mucus weight, LS mean ([4]; 200 mg, ITT-I): 0.33 g
Time to peak total symptom score, mean (SE) ([4]; 200 mg, ITT-I): 2.08 (0.68) days
AUC of total symptom score, mean (SE) [4, 6]: 111.35 (33.88) score x hours
AUC of total symptom score, mean (SE) ([4]; 350 mg, ITT-A): 92.98 (26.81) score x hours
AUC of total symptom score, reduction in mean vs placebo ([4]; 350 mg, ITT-A): 78.75%
Daily nasal mucus weight, LS mean ([4]; 350 mg, ITT-A): 0.26 g
Peak total symptom score, mean (SE) ([4]; 350 mg, ITT-A): 2.1 (0.49)
Time to peak total symptom score, mean (SE) ([4]; 350 mg, ITT-A): 1.26 (0.55) days
Time to resolution from peak total symptom score, mean (SE) ([4]; 350 mg, ITT-A): 2.44 (0.43) days
AUC of total symptom score, mean (SE) [4, 7]: 92.98 (26.81) score x hours
AUC total symptom score, mean (SE) ([4]; 350 mg, ITT-I): 82.41 (24.45) score × hours
Daily nasal mucus weight, LS mean ([4]; 350 mg, ITT-I): 0.27 g
Time to peak total symptom score, mean (SE) ([4]; 350 mg, ITT-I): 1.56 (0.57) days
AUC of total symptom score, mean (SE) [4, 8]: 82.41 (24.45) score x hours
pEC50 ([5]; read-out: EC50 range): 8.85 to 9.40
EC90 ([5]; read-out: EC90 range): 2 to 10.4 nM

From paper PMC6985722 (Antimicrobial Agents and Chemotherapy, 2020)
